Source: patent US20080274096A1, “Fusion Proteins Having a Modulated Half-Life in Plasma” (ASTRAZENECA AB, priority 2005, published 2008)

Legend:
Format in all cases: biochemical
[1] = molecular target: T1, Human recombinant Neprilysin (Homo sapiens, UniProt P08473); assay: Inhibition of added Neprilysin degradation of Aβ40 in guinea pig plasma; parameters: purchased R&D Systems; host or cells: enzyme added to pooled heparinized guinea pig plasma; conditions: 10 microM Phosphoramidon
Experimental: Blood was withdrawn from anaesthetized guinea pigs by heart puncture. The blood were collected into prechilled heparin-plasma tubes and centrifuged for 10 min at 4° C. at 3000×g within 20 minutes of sampling. Plasma samples were transferred to pre-chilled polypropylene tubes and immediately frozen on dry ice and stored at −70° C. prior to use. The experiments were performed on a pool of plasma from 5-6 guinea pigs.
Human recombinant Neprilysin in a buffer containing 25 mM Tris and 100 mM NaCl pH 8 (R&D Systems) or buffer only (i.e. vehicle) was incubated with guinea pig plasma at 37° C. for 0-360 minutes in presence or absents of 10 microM phosphoramidon (Biomol). A final concentration of 4.7 mM EDTA was added into the tubes before the amount of Aβ1-40 or Aβ1-42 was analyzed by using commercial ELISA kits obtained from Biosource (Aβ1-40) or Innogenetics (Aβ1-42).

[2] = molecular target: T1, Human recombinant Neprilysin; assay: Inhibition of Neprilysin degradation of amyloid β1-40 peptide in buffer; parameters: Degradation of Amyloid β Peptide by Soluble Neprilysin; purchased R&D Systems; conditions: 10 microM Phosphoramidone; Neprilysin 1.8 μg/ml; 3 hours, 37° C.
Experimental: The assay is measuring the remaining amyloid β1-40 peptide (Bachem) concentration following its incubation in the presence of Neprilysin (R&D Systems) with or without Neprilysin inhibitor. 100 μl of reaction mixture containing of amyloid β1-40 peptide (final concentration 1 or 10 μM) and/or Neprilysin (1.8 μg/ml), and/or Phosphoramidone (10 μM) was incubated in a round bottom 96-well polypropylene plate at 37° C. for 3 hours. Following incubation, 50 μl of antibodies solution containing anti-Aβ40 (final concentration 0.125 μg/ml; Biosource) and Biotinylated 6E10 (final concentration 0.125 μg/ml; Signet) antibodies was added to each well. Plate was incubated at RT for 3 h. Following incubation, 50 μl of detection mixture of Dynabeads M280 (Dynal Biotech ASA) and secondary antibody Ru-GαR (final concentration 0.132 μg/ml) was added to all wells. Plate was incubated on a shaker at RT for 1 h and results were recorded on IGEN/Bio Veris M8 analyser. Amyloid β1-40 peptide degradation by Neprilysin was calculated as a percentage of Amyloid β1-40 peptide left after incubation in the presence of Neprilysin compared to the amyloid β1-40 peptide concentration in the absence of Neprilysin.

amyloid β peptide = assay: Two-compartment membrane experiment, degradation of amyloid β peptide; conditions: degradation in one compartment connected through a membrane
Experimental: An experiment is performed to investigate the possibility to remove amyloid β peptide from one compartment by degradation in another compartment connected through a membrane. A similar experiment was conducted using an antibody as an amyloid β peptide agent. The experiment is described by DeMattos et al., (PNAS, 2001). By degrading the amyloid β peptide with neprilysin and/or NEP-Fc in one compartment the concentration of amyloid β peptide in the other compartment is decreased. Importantly, neprilysin or NEP-Fc cannot cross the membrane due to its high molecular weight (161.000 Da and 211.000 Da, respectively).

T1 sequence (P08473 52-750 limits assumed): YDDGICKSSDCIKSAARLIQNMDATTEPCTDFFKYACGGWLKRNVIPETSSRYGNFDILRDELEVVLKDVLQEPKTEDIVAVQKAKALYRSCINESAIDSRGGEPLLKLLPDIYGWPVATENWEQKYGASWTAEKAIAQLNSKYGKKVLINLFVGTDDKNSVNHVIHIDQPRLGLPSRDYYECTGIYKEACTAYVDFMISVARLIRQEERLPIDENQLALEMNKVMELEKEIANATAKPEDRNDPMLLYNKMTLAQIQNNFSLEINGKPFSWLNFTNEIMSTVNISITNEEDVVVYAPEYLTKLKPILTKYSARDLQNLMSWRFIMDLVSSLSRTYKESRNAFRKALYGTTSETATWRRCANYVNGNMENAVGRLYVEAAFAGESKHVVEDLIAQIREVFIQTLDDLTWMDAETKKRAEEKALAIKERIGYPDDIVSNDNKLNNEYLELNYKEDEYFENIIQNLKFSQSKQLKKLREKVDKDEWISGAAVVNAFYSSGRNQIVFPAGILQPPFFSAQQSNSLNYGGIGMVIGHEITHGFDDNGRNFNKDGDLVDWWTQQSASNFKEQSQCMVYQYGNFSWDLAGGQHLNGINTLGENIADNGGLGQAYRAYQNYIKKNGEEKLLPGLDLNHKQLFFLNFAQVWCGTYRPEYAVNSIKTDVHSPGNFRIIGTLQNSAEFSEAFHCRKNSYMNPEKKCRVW

CC(C)C[C@H](NP(=O)(O)O[C@@H]1O[C@@H](C)[C@H](O)[C@@H](O)[C@H]1O)C(=O)N[C@@H](Cc1c[nH]c2ccccc12)C(=O)O [Phosphoramidon]
Degradation of Aβ40 by added Neprilysin in the presence of inhibitor [1]: inhibited
Neprilysin activity (Aβ1-40 degradation) in the presence of inhibitor [2]: completely abolished

NEP-Fc: extracellular domain of Neprilysin fused to the IgG4 Fc domain including hinge region, SEQ ID 8
Concentration of amyloid β peptide in the other compartment (amyloid β peptide): decreased
